Test results reported in publication PMC12328261, “Modulating Antimicrobial Activity and Structure of the Peptide Esc(1‐21) via Site‐Specific Isopeptide Bond Formation” (Journal of Peptide Science, 2025).
*1 amine or outer side, *2 acyl side, *3 side chain or, on linkers, in order; H or OH if unused. Where a SMILES comes first, the peptide text is derived from it. Bridges are numbered along the chain shown (N, C = ends). Roman numbers before positions name the chains, in order. Where no end group is shown, it is not given here. Side-chain parts run from the residue outwards. [ ]: non-standard residue; d: D form. εLys = N[C@@H](CCCCN[*:1])C(=O)[*:2]

Key:
RBCs = system: RBCs; parameters: method as in PMID 32722535; conditions: 64 µM; cited from earlier work
E. coli ATCC 25922 = type: cell-based, Escherichia coli
Experimental: (§1) The antimicrobial activity of Esc(1‐21) analogs was assessed by determining the minimal inhibitory concentration (MIC) against a panel of representative Gram‐negative and Gram‐positive bacteria. […] The bacteria were then diluted in Mueller‐Hinton (MH) broth at a concentration of 2 × 10^6 colony‐forming units (CFU)/mL. Aliquots (50 μL) were added to 50 μL of MH containing serial two‐fold dilutions of the peptides, which had been previously prepared in the wells of a 96‐well plate, achieving a final cell concentration of 10^6 CFU/mL. […] To evaluate the antibiofilm activity of the tested peptides, bacteria were diluted to a cell density of 10^6 CFU/mL and aliquots of 100 μL were dispensed into the wells of a 96‐multiwell plate and incubated for 20 h at 37°C to allow biofilm formation. Planktonic cells were then removed, and each well was washed twice with 150 μL of phosphate buffered saline (PBS). Each well was filled with PBS supplemented with different 2‐fold serial dilutions of the tested peptides and the plate was incubated for 2 h at 37°C. After two washes with PBS, biofilm viability was assessed by adding 150 μL of MTT (0.5 mg/mL). The plate was incubated for 4 h at 37°C and the reaction was then stopped by adding SDS (final concentration equal to 5% v/v). The absorbance of each well was measured at 570 nm with a microplate reader (Infinite M200; Tecan, Salzburg, Austria), and the percentage of biofilm viability was calculated with respect to the untreated samples.

P. aeruginosa ATCC 15692 = type: cell-based, Pseudomonas aeruginosa
Experimental: as §1

P. aeruginosa ATCC 27853 = type: cell-based, Pseudomonas aeruginosa
Experimental: as §1

[1] = system: S. epidermidis ATCC 12228; type: cell-based, Staphylococcus epidermidis
Experimental: as §1

S. aureus ATCC 25923 = type: cell-based, Staphylococcus aureus
Experimental: as §1

| Compound | Hemolysis (RBCs) | Antimicrobial activity (MIC) (E. coli ATCC 25922) | Antimicrobial activity (MIC) (P. aeruginosa ATCC 15692) | Antimicrobial activity (MIC) (P. aeruginosa ATCC 27853) | Antimicrobial activity (MIC) [1] | Antimicrobial activity (MIC) (S. aureus ATCC 25923) |
| --- | --- | --- | --- | --- | --- | --- |
| GIFSKLAGKKIKNLLISGLKG-NH2 [Esc(1‐21), Esculentin‐1a(1‐21)NH2] | 10-15% |  |  |  |  |  |
| CC[C@H](C)[C@H](NC(=O)CN)C(=O)N[C@@H](Cc1ccccc1)C(=O)N[C@@H](CO)C(=O)N[C@@H](CCCCN)C(=O)N[C@@H](CC(C)C)C(=O)N[C@@H](C)C(=O)NCC(=O)N[C@@H](CCCCN)C(=O)N[C@@H](CCCCN)C(=O)N[C@H](C(=O)N[C@@H](CCCCN)C(=O)N[C@@H](CC(N)=O)C(=O)N[C@@H](CC(C)C)C(=O)N[C@@H](CC(C)C)C(=O)N[C@H](C(=O)N[C@@H](CO)C(=O)NCC(=O)N[C@@H](CC(C)C)C(=O)NCCCC[C@H](N)C(=O)NCC(N)=O)[C@@H](C)CC)[C@@H](C)CC [Esc(1‐21)ε20] (H-GIFSKLAGKKIKNLLISGL[εLys]G-NH2) |  | 1.56 µM | 1.56 µM | 1.56 µM | 3.12 µM | > 50 µM |
| CC[C@H](C)[C@H](NC(=O)CN)C(=O)N[C@@H](Cc1ccccc1)C(=O)N[C@@H](CO)C(=O)N[C@@H](CCCCN)C(=O)N[C@@H](CC(C)C)C(=O)N[C@@H](C)C(=O)NCC(=O)NCCCC[C@H](N)C(=O)N[C@@H](CCCCN)C(=O)N[C@H](C(=O)N[C@@H](CCCCN)C(=O)N[C@@H](CC(N)=O)C(=O)N[C@@H](CC(C)C)C(=O)N[C@@H](CC(C)C)C(=O)N[C@H](C(=O)N[C@@H](CO)C(=O)NCC(=O)N[C@@H](CC(C)C)C(=O)N[C@@H](CCCCN)C(=O)NCC(N)=O)[C@@H](C)CC)[C@@H](C)CC [Esc(1‐21)ε9] (I: H-KKIKNLLISGLKG-NH2 / II: H-GIFSKLAG; amide I:1-II:C) |  | 3.12 µM | 6.25 µM | 6.25 µM | 12.5 µM | > 50 µM |
| CC[C@H](C)[C@H](NC(=O)CN)C(=O)N[C@@H](Cc1ccccc1)C(=O)N[C@@H](CO)C(=O)N[C@@H](CCCCN)C(=O)N[C@@H](CC(C)C)C(=O)N[C@@H](C)C(=O)NCC(=O)N[C@@H](CCCCN)C(=O)N[C@@H](CCCCN)C(=O)N[C@H](C(=O)NCCCC[C@H](N)C(=O)N[C@@H](CC(N)=O)C(=O)N[C@@H](CC(C)C)C(=O)N[C@@H](CC(C)C)C(=O)N[C@H](C(=O)N[C@@H](CO)C(=O)NCC(=O)N[C@@H](CC(C)C)C(=O)N[C@@H](CCCCN)C(=O)NCC(N)=O)[C@@H](C)CC)[C@@H](C)CC [Esc(1‐21)ε12] (H-GIFSKLAGKKI[εLys]NLLISGLKG-NH2) |  | 25 µM | 25 µM | 25 µM | > 50 µM | > 50 µM |
| CC[C@H](C)[C@H](NC(=O)CN)C(=O)N[C@@H](Cc1ccccc1)C(=O)N[C@@H](CO)C(=O)NCCCC[C@H](N)C(=O)N[C@@H](CC(C)C)C(=O)N[C@@H](C)C(=O)NCC(=O)N[C@@H](CCCCN)C(=O)N[C@@H](CCCCN)C(=O)N[C@H](C(=O)N[C@@H](CCCCN)C(=O)N[C@@H](CC(N)=O)C(=O)N[C@@H](CC(C)C)C(=O)N[C@@H](CC(C)C)C(=O)N[C@H](C(=O)N[C@@H](CO)C(=O)NCC(=O)N[C@@H](CC(C)C)C(=O)N[C@@H](CCCCN)C(=O)NCC(N)=O)[C@@H](C)CC)[C@@H](C)CC [Esc(1‐21)ε5] (H-K([Ser-Phe-Ile-Gly])LAGKKIKNLLISGLKG-NH2) |  | 3.12 µM | 6.25 µM | 12.5 µM | 25 µM | > 50 µM |
| CC[C@H](C)[C@H](NC(=O)CN)C(=O)N[C@@H](Cc1ccccc1)C(=O)N[C@@H](CO)C(=O)N[C@@H](CCCCN)C(=O)N[C@@H](CC(C)C)C(=O)N[C@@H](C)C(=O)NCC(=O)N[C@@H](CCCCN)C(=O)NCCCC[C@H](N)C(=O)N[C@H](C(=O)N[C@@H](CCCCN)C(=O)N[C@@H](CC(N)=O)C(=O)N[C@@H](CC(C)C)C(=O)N[C@@H](CC(C)C)C(=O)N[C@H](C(=O)N[C@@H](CO)C(=O)NCC(=O)N[C@@H](CC(C)C)C(=O)N[C@@H](CCCCN)C(=O)NCC(N)=O)[C@@H](C)CC)[C@@H](C)CC [Esc(1‐21)ε10] (I: H-KIKNLLISGLKG-NH2 / II: H-GIFSKLAGK; amide I:1-II:C) |  | 6.25 µM | 6.25 µM | 12.5 µM | 25 µM | > 50 µM |
